# Data: article PMC10714399, “Open Source Antibiotics: Simple Diarylimidazoles Are Potent against Methicillin-Resistant Staphylococcus aureus” (ACS Infectious Diseases, 2023)
# Values joined by “and” are separate entries in the source; they are usually repeats but may differ in a detail not shown here. Identical values can stand only once. Like-named read-outs stand apart in the source and are kept apart here.
# Key:
# [1] = system: Staphylococcus aureus NCTC 13373 (mecA-positive; methicillin-resistant); experiment: In vitro antibacterial activity, MIC (UCL School of Pharmacy assay), MRSA; type: cell-based; conditions: for MIC: Staphylococcus aureus
# In short: (§1)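 Two-fold dilution MIC testing, 32–0.03 μg/mL, isosensitest broth medium. Cultures standardized by absorbance at 600 nm (0.1, ~1 × 10^8 CFU/mL) before 1:100 dilution; vancomycin included for quality control.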
# [2] = system: Enterococcus faecalis ATCC 51299 (vanA-positive; vancomycin-resistant); experiment: In vitro antibacterial activity, MIC (UCL), VRE; type: cell-based; conditions: read-out: VRE MIC (UCL)
# Protocol: Staphylococcus aureus NCTC 13373 (mecA-positive; methicillin-resistant, NCTC 13373) was supplied by the National Collection of Type Cultures (NCTC), Public Health England, United Kingdom. Other organisms, S. aureus ATCC 25923 (methicillin-susceptible) and Enterococcus faecalis ATCC 51299 (vanA-positive; vancomycin-resistant), were obtained from the American Type Culture Collection (ATCC) via LGC Standards, UK. A suspension of each organism was prepared from an overnight plate culture (tryptone soya agar) in phosphate-buffered saline (PBS) and adjusted to an absorbance reading at 600 nm of 0.1, which is approximately equivalent to 1 × 10^8 colony-forming units (CFU) per mL. The cultures were further diluted 1:100 in isosensitest broth (Oxoid, United Kingdom) before 100 μL was used to inoculate each well of a 96-well plate that contained diluted samples of the OSA series. Compounds were evaluated over a 2-fold dilution range from 32 to 0.03 μg/mL. Stocks of the samples were prepared in 100% DMSO at […] before being diluted in isosenstitest broth. The highest concentration of DMSO present was 2%, which has been previously shown not to inhibit the growth of the microorganisms (data not shown). […] Vancomycin was used as a quality control compound.
# [3] = system: MRC-5SV2 (human lung fibroblast cell line); experiment: Toxicity against MRC-5SV2; type: cell-based
# Protocol: (§2) ADME and toxicity for compounds were measured according to procedures outlined in the manuscript submitted in parallel to this one;2 other procedures were used for those compounds analysed by Monash University (in vitro ADME) or UCL (toxicity), both described in the main
# [4] = system: PMM (primary mouse macrophages); experiment: Toxicity against PMM; type: cell-based
# Protocol: as §2
# [5] = system: S. aureus ATCC 25923 (methicillin-susceptible); experiment: In vitro antibacterial activity, MIC (UCL), MSSA; type: cell-based, Staphylococcus aureus; conditions: for MIC: Staphylococcus aureus
# In short: as §1
# [6] = UCL assay, read-out: MRSA MIC (ug/mL) (UCL)
# [7] = UCL assay, read-out: MSSA MIC (ug/mL) (UCL)
Structure (SMILES),MRC5 TC50 ([3]; MRC5 cells) [µM],PMM TC50 ([4]; PMM) [µM],"MIC [1, 6] [µg/mL]","MIC [5, 7] [µg/mL]",MRSA MIC [1],MRC5 TC50 [3] [µg/mL],PMM TC50 [4] [µg/mL],MSSA MIC [5] [µg/mL],also measured
Fc1cccc(-c2c(-c3ccccn3)nc3n2CCC3)c1 [OSA_000872],7.2,54.63,–,–,–,–,–,–,"MIC ([1]; UCL, read-out: MRSA MIC (UCL)): > 32 µg/mL; MIC [2]: > 32 µg/mL"
Cc1ccc2nc(-c3ccccc3)c(CNc3cccc(C(F)(F)F)c3)n2c1 [OSA_001028],64,64,> 32,> 32,–,–,–,–,–
CCCCN(Cc1c(-c2ccccc2)nc2ccc(C)cn12)c1cccc(C(F)(F)F)c1 [OSA_001029],1.19,8,8,8,–,–,–,–,–
Cc1ccn2cc(-c3ccccn3)nc2c1 [OSA_001030],22.11,64,> 32,> 32,–,–,–,–,–
Cc1ccn2c(CNc3ccc(F)cc3)c(-c3ccccn3)nc2c1 [OSA_001031],64,64,> 32,> 32,–,–,–,–,–
CCCCN(Cc1c(-c2ccccn2)nc2cc(C)ccn12)c1ccc(F)cc1 [OSA_001032],16,32,32,32,–,–,–,–,–
Cc1ccn2c(CN(CC(C)C)c3cccc(C(F)(F)F)c3)c(-c3ccccn3)nc2c1 [OSA_001033],9.78,32,> 32,> 32,–,–,–,–,–
FC(F)(F)c1ccc(-c2c(-c3ccccn3)nc3n2CCC3)cc1 [OSA_001052],8.17,32,16,16,–,–,–,–,–
Fc1ccc(-c2c(-c3ccccn3)nc3n2CCC3)cc1 [OSA_001053],7.55,32,> 32,> 32,–,–,–,–,–
c1ccc(-c2nc3n(c2-c2ccncc2)CCC3)nc1 [OSA_001072],64,64,> 32,> 32,–,–,–,–,–
Fc1cc(-c2c(-c3ccccn3)nc3n2CCC3)ccn1 [OSA_001073],30.55,32,> 32,> 32,–,–,–,–,–
Nc1ccc(-c2c(-c3ccccn3)nc3n2CCC3)cc1 [OSA_001074],5.73,8,> 32,> 32,–,–,–,–,–
N#Cc1ccc(-c2c(-c3ccccn3)nc3n2CCC3)cn1 [OSA_001075],64,64,> 32,> 32,–,–,–,–,–
COc1cc(-c2c(-c3ccccn3)nc3n2CCC3)ccc1C#N [OSA_001076],27.86,64,> 32,> 32,–,–,–,–,–
N#Cc1ccc(-c2c(-c3ccccn3)nc3n2CCC3)cc1C(F)(F)F [OSA_001077],64,64,> 32,> 32,–,–,–,–,–
Fc1ccc(NCc2c(-c3ccccn3)nc3ccccn23)cc1 [compound 1019],–,–,–,–,32 µg/mL,20.4,20.4,–,MIC ([1]; read-out: MRSA MIC): > 32 µg/mL; MIC ([5]; read-out: MSSA MIC): > 32 µg/mL

Structure (SMILES),MRC5 TC50 ([3]; MRC5 cells) [µM],PMM TC50 ([4]; PMM) [µM],"MIC [1, 6] [µg/mL]","MIC [5, 7] [µg/mL]",MRSA MIC [1],MRC5 TC50 [3] [µg/mL],PMM TC50 [4] [µg/mL],MSSA MIC [5] [µg/mL],also measured
CS(=O)(=O)c1ccc2nc(-c3ccccn3)c(Nc3ccc(F)cc3)n2c1 [compound 1020],–,–,–,–,> 32 µg/mL and 32 µg/mL,24.5,12.2,> 32,–
CC(=O)N(c1ccc(F)cc1)c1c(-c2ccccn2)nc2ccccn12 [compound 1021],–,–,–,–,32 µg/mL,22.2,22.2,–,MIC ([1]; read-out: MRSA MIC): > 32 µg/mL; MIC ([5]; read-out: MSSA MIC): > 32 µg/mL
Cc1ccc2nc(-c3ccccc3)cn2c1 [compound 1026],–,–,–,–,> 32 µg/mL and 32 µg/mL,13.3,13.3,> 32,–
Cc1ccc2nc(-c3ccccc3)c(CNc3ccc(F)cc3)n2c1 [compound 1027],–,–,–,–,> 32 µg/mL and 32 µg/mL,21.2,21.2,> 32,–
Cc1ccc2nc(-c3ccccc3)c(CNc3cccc(C(F)(F)F)c3)n2c1 [compound 1028],–,–,–,–,> 32 µg/mL and 32 µg/mL,24.4,24.4,> 32,–
CCCCN(Cc1c(-c2ccccc2)nc2ccc(C)cn12)c1cccc(C(F)(F)F)c1 [compound 1029],–,–,–,–,8 µg/mL,0.5,3.5,8,–
Cc1ccn2cc(-c3ccccn3)nc2c1 [compound 1030],–,–,–,–,> 32 µg/mL and 32 µg/mL,4.6,13.4,> 32,–
Cc1ccn2c(CN(CC(C)C)c3cccc(C(F)(F)F)c3)c(-c3ccccn3)nc2c1 [compound 1033],–,–,–,–,> 32 µg/mL and 32 µg/mL,4.3,14.0,> 32,–
FC(F)(F)c1ccc(-c2c(-c3ccccn3)nc3n2CCC3)cc1 [compound 1052],–,–,–,–,–,2.7,10.5,–,MIC ([1]; read-out: MRSA MIC): 16 µg/mL; MIC ([5]; read-out: MSSA MIC): 16 µg/mL
Fc1ccc(-c2c(-c3ccccn3)nc3n2CCC3)cc1 [compound 1053],–,–,–,–,> 32 µg/mL and 32 µg/mL,2.1,8.9,> 32,–
c1ccc(-c2nc3n(c2-c2ccncc2)CCC3)nc1 [compound 1072],–,–,–,–,> 32 µg/mL and 32 µg/mL,16.8,16.8,> 32,–
Fc1cc(-c2c(-c3ccccn3)nc3n2CCC3)ccn1 [compound 1073],–,–,–,–,> 32 µg/mL and 32 µg/mL,8.6,9.0,> 32,–
Nc1ccc(-c2c(-c3ccccn3)nc3n2CCC3)cc1 [compound 1074],–,–,–,–,> 32 µg/mL and 32 µg/mL,1.6,2.2,> 32,–
N#Cc1ccc(-c2c(-c3ccccn3)nc3n2CCC3)cn1 [compound 1075],–,–,–,–,> 32 µg/mL and 32 µg/mL,18.4,18.4,> 32,–
COc1cc(-c2c(-c3ccccn3)nc3n2CCC3)ccc1C#N [compound 1076],–,–,–,–,> 32 µg/mL and 32 µg/mL,8.8,20.2,> 32,–
N#Cc1ccc(-c2c(-c3ccccn3)nc3n2CCC3)cc1C(F)(F)F [compound 1077],–,–,–,–,> 32 µg/mL and 32 µg/mL,22.7,22.7,> 32,–
